According to ChEMBL document CHEMBL1201862, “PubChem BioAssay data set” (2004):
Active and inactive are the calls of the source. Unless noted, the calls are words filed in the database; no cut-off is given here.

Assays:
Hexokinase = Hexokinase (Trypanosoma brucei, UniProt Q38C41); test: Confirmation assay for inhibitors of Trypanosoma brucei hexokinase 1-Analogue-first series. [Related pubchem assays (depositor defined):AID1430, AID1632, AID2516, AID2560, AID2579, AID2600, AID449725, AID492951]; type: functional
Hexokinase, sequence (Q38C41 whole entry): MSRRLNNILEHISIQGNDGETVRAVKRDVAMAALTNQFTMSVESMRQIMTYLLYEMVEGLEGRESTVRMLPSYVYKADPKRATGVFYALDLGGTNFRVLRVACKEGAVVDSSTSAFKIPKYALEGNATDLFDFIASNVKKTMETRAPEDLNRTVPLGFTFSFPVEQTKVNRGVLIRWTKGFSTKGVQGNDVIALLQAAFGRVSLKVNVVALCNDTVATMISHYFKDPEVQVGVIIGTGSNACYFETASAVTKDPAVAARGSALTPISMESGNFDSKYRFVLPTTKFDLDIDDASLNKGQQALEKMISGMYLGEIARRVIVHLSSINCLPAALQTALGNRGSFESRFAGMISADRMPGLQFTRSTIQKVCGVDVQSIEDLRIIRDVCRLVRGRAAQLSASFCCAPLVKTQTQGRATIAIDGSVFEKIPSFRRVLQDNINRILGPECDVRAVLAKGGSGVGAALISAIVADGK

[1] = biological target: E3 ubiquitin-protein ligase XIAP (Homo sapiens, UniProt P98170); test: Counter Screen using XIAP-Bir3 for Chemical Antagonists of Bir1/2 domains of IAP-family anti-apoptotic proteins. [Related pubchem assays (depositor defined):AID1018, AID1449, AID1514, AID1638, AID1749, AID1750, AID488957, AID488963]
E3 ubiquitin-protein ligase XIAP, sequence (P98170 whole entry): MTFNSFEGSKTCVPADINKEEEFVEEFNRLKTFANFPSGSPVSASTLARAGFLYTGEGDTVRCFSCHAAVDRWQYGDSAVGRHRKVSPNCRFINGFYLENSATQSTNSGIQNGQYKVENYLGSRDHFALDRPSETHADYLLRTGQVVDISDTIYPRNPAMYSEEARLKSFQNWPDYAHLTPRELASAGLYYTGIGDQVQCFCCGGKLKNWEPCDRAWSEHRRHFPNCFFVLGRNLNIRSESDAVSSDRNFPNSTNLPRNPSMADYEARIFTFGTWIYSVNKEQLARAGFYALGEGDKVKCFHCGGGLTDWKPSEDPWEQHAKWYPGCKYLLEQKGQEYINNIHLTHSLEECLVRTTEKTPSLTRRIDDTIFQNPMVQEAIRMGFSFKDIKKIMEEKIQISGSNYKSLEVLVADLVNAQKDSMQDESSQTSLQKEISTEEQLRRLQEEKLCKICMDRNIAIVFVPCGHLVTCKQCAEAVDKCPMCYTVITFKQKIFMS

[2] = biological target: T1, Peroxisome proliferator-activated receptor gamma (Homo sapiens, UniProt P37231); test: PPARg transcriptional activation, reporter cells – cell-based, luminescence, assay provider, dose response (AID 504447); type: functional
T1 sequence (P37231 whole entry): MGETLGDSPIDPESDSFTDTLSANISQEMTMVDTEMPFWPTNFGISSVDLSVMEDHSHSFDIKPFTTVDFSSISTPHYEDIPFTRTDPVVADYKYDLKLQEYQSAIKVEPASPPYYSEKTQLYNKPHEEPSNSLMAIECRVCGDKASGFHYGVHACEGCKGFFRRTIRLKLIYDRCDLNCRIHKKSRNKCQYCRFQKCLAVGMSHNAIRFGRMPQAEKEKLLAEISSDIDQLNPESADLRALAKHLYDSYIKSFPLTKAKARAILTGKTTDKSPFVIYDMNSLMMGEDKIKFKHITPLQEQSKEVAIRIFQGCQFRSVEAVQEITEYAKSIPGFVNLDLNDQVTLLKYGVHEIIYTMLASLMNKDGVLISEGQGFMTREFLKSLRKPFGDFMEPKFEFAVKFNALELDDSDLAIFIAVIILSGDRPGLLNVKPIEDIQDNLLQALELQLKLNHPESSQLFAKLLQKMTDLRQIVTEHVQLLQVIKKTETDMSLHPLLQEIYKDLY

[3] = biological target: T1, Peroxisome proliferator-activated receptor gamma; test: competitive ligand displacement at PPARg – biochemical, fluorescence polarization, PolarScreen, PPARg partial agonist project, dose response (AID 504453)
[4] = biological target: T1, Peroxisome proliferator-activated receptor gamma; test: competitive ligand displacement at PPARg – biochemical, TR-FRET, LanthaScreen, PPARg partial agonist project, dose response (AID 504446)
Hexokinase-1 = Hexokinase-1 (Homo sapiens, UniProt P19367); test: HK1 enzyme activation by HKDC1 hits – biochemical, selectivity assay for HKDC1 activator project, dose response (AID 504762); type: functional
Hexokinase-1, sequence (P19367 whole entry): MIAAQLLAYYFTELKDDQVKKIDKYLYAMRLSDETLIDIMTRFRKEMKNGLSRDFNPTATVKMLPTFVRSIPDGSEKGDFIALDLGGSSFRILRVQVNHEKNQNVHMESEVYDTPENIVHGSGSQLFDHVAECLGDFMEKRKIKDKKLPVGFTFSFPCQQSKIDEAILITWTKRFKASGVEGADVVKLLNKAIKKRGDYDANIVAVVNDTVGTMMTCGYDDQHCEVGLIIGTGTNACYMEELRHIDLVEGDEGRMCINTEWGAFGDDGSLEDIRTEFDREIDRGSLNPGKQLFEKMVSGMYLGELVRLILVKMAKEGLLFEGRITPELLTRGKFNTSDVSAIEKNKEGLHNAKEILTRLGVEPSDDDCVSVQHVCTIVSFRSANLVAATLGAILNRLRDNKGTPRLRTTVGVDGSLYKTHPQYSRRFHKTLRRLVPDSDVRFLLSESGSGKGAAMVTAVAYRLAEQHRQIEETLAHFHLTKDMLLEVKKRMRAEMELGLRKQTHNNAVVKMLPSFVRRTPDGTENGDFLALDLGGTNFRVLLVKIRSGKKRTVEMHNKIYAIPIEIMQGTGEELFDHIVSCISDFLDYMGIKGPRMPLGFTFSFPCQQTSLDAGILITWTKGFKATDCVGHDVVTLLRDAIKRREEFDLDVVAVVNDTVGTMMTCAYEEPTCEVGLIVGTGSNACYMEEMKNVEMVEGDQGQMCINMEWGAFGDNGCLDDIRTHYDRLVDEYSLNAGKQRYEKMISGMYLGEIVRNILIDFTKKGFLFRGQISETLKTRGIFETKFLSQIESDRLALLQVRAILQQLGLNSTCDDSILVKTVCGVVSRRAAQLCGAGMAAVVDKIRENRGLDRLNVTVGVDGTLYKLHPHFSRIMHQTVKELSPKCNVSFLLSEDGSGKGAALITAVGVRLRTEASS

Hexokinase HKDC1 = Hexokinase HKDC1 (Homo sapiens, UniProt Q2TB90); test: activation of HKDC1 glucose phosphorylation – biochemical, W721R variant, dose response (AID 504730); type: functional
Hexokinase HKDC1, sequence (Q2TB90 whole entry, the tested form may be a part): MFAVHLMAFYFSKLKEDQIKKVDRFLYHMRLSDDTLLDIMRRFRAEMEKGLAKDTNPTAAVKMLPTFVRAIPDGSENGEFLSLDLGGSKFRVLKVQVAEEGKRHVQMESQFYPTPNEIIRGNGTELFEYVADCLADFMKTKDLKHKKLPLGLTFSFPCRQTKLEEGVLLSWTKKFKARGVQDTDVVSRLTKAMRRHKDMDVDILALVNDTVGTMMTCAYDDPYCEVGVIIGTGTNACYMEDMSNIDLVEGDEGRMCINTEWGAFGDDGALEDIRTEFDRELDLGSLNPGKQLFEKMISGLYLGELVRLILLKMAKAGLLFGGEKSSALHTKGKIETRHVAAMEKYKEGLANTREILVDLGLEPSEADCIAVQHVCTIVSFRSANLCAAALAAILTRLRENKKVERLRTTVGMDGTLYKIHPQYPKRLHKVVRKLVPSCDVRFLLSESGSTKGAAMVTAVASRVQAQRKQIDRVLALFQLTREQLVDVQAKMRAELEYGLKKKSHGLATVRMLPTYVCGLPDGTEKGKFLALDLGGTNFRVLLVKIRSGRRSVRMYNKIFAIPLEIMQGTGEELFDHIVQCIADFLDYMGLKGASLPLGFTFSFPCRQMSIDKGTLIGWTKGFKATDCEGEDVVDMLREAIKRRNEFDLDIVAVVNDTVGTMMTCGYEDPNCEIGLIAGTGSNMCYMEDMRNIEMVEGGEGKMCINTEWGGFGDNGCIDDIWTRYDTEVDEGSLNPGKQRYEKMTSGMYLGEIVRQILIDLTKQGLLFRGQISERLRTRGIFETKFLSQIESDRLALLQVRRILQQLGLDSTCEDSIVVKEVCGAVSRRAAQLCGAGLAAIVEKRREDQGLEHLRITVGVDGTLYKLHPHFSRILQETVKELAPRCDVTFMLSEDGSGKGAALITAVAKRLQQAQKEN

[5] = biological target: T2, Runt-related transcription factor 1/Core-binding factor subunit beta (Homo sapiens, UniProt Q01196+Q13951); test: Runt domain/CBFb-SMMHC interaction disruptors – biochemical, TR-FRET (AID 1438); type: protein assay
T2 sequence (Q01196 whole entry, the tested form may be a part): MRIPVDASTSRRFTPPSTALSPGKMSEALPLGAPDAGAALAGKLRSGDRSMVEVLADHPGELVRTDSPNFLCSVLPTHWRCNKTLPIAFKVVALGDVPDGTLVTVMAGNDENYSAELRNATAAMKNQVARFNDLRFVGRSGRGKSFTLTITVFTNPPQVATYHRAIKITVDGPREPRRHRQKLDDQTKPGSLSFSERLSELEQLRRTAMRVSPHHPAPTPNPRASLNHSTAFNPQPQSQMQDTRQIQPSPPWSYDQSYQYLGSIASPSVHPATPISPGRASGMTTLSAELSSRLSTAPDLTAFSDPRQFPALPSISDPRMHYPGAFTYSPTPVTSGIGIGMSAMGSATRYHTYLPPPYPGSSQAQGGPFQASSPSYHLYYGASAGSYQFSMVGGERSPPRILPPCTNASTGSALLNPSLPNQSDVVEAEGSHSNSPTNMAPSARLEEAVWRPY
T2 sequence (Q13951 whole entry, the tested form may be a part): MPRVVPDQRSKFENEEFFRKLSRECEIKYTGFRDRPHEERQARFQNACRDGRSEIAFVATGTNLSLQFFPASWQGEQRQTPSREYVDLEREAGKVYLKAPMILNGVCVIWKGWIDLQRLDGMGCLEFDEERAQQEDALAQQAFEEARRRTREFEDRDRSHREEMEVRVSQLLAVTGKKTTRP

[6] = biological target: T2, Runt-related transcription factor 1/Core-binding factor subunit beta; test: Confirmation of compounds inhibiting the binding between the RUNX1 Runt domain and CBFb-SMMHC via a time resolved fluorescence resonance energy transfer (TR-FRET) assay. [Related pubchem assays (depositor defined):AID1434, AID1438, AID1496, AID1560, AID1645]; type: protein assay
[7] = biological target: Dual specificity tyrosine-phosphorylation-regulated kinase 1A (Rattus norvegicus, UniProt Q63470); type: biochemical, Homo sapiens
[8] = biological target: T2, Runt-related transcription factor 1/Core-binding factor subunit beta; test: disruptors of Runt domain/CBFb-SMMHC interaction – biochemical, FRET, Cerulean-Runt, Venus-CBFb-SMMHC, uHTS, […] (AID 1434); type: protein assay
[9] = biological target: T2, Runt-related transcription factor 1/Core-binding factor subunit beta; test: Confirmation of compounds inhibiting the binding between the RUNX1 Runt domain and CBFb-SMMHC via a fluorescence resonance energy transfer (FRET) assay. [Related pubchem assays (depositor defined):AID1434, AID1438, AID1496, AID1550, AID1645]; type: protein assay
[10] = biological target: T3, Ubiquitin-conjugating enzyme E2 N (Homo sapiens, UniProt P61088); type: functional
T3 sequence (P61088 whole entry): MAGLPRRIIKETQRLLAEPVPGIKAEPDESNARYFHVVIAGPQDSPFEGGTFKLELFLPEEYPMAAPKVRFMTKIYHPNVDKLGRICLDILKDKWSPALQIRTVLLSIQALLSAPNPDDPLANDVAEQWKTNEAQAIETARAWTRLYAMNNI

Bcl-2-related protein A1 = biological target: T4, Bcl-2-related protein A1 (Mus musculus, UniProt Q07440); type: functional;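 further: confirmatory dose–response counterscreen on Bfl-1, used to check hits from a UBC13 polyubiquitin inhibitor campaign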
T4 sequence (Q07440 whole entry): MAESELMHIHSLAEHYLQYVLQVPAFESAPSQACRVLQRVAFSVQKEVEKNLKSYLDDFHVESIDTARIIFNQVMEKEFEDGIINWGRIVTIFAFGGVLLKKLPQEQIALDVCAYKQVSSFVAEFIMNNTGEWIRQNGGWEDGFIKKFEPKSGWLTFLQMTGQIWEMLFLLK

[11] = biological target: T3, Ubiquitin-conjugating enzyme E2 N; type: functional; remark: listed apart in the source

In the case of `Cc1ccccc1N1Cc2ccccc2C1=O`, the IC50 (Hexokinase) is reported as > 25 µM (inactive).
For `O=C(Nc1ccc(Br)cc1)c1ccc(N2C(=O)C3CC=CCC3C2=O)cc1` (stereo not given), the IC50 [1] was > 20 µM (inactive).
In the case of `CCn1cnc2c1c(=O)n(Cc1cccc([N+](=O)[O-])c1)c(=O)n2Cc1ccccc1`, the EC50 [2] is reported as 0.181 µM (active), the IC50 [3] is reported as 0.173 µM (active) and the IC50 [4] is reported as 0.6 µM (active).
With `CCOC(=O)c1c(C)[nH]c(C2=NN=C(Nc3ccc(OCC)cc3)SC2)c1C` the EC50 (Hexokinase-1) was 21.1 µM (inactive) and the EC50 (Hexokinase HKDC1) was 19.4 µM (active).
With `Cc1ccc(/C=C(\C#N)C(=O)Nc2cccc3ncccc23)o1` the IC50 [5] was 17.4 µM (active), the IC50 [6] was > 25 µM (inactive) and the AC50 [7] was 0.701 µM (active). The IC50 [8] was 23.6 µM (active) and the IC50 [9] was 26.6 µM (active).
For `CCCCN=C(S)N=Nc1c(O)[nH]c2ccccc12`, the IC50 [10] was 8.6 µM (active), the IC50 (Bcl-2-related protein A1) was > 20 µM (inactive) and the IC50 [11] was 5.96 µM (active).
